From patent US8569327B2, “Phenanthroindolizidine derivative and NFκB inhibitor containing same as active ingredient” (Kabushiki Kaisha Yakult Honsha, priority 2008, dated 2013)

Legend:
SV40 promoter = SV40 promoter activity, luciferase assay in SW480/SV40-Luc cells; assay type: cell-based, human; conditions: for IC50: Homo sapiens, SW480, read-out: SV40 promoter inhibitory activity IC50; for SV40 promoter inhibitory activity IC50: SW480/SV40-Luc cells, luciferase
Source text: (§1) The action of the phenanthroindolizidine alkaloid compound of the present invention on the NFκB activity was studied using a luciferase assay. Human colon cancer SW480 cells were transfected with pNFκB-Luc Plasmid (Stratagene), which is a reporter vector in which a five-time tandem repeat of the NFκB responsive element (NRE) is integrated into the upstream of the luciferase gene, using Lipofectamine 2000 (Invitrogen Corporation) in accordance with the attached operating procedure. Subsequently, the cells were cultured in an RPMI1640 medium containing 10% FBS, 100 U/mL penicillin, 100 μg/mL streptomycin, and 0.5 mg/mL G418 to produce SW480 cells having the luciferase gene, the expression of which is regulated by NRE, stably introduced therein (SW480/NRE-Luc cells). Likewise, SW480 cells were transfected with pGL3-Control Vector (Promega Corporation), which is a reporter vector in which the SV40 promoter is integrated into the upstream of the luciferase gene, to produce SW480 cells having the luciferase gene, the expression of which is regulated by the SV40 promoter, stably introduced therein (SW480/SV40-Luc cells). The SW480/NRE-Luc cells or the SW480/SV40-Luc cells were suspended in an RPMI1640 medium containing 10% FBS, 100 U/mL penicillin, and 100 μg/mL streptomycin (10% FBS/RPMI1640), and then seeded in a 96-well microplate, followed by culturing under conditions of 5% CO2 and at 37° C. (5000 cells/well). After an overnight culture, the compound of the present invention was added, followed by culturing for one hour. Further, 50 ng/mL TNFα (Sigma-Aldrich Corporation) was added, followed by culturing for four hours. Subsequently, a Steady-Glo Luciferase Assay reagent (Promega Corporation) was added, and the luminescent intensity was detected by SpectraMax M5e (Molecular Devices, Inc.) to measure the intracellular luciferase activity. It is to be noted that the action of the compound of the present invention on the NFκB activity or the SV40 promoter activity was shown as IC50 values (the concentration of a test compound needed for 50% inhibition of the induction of the luciferase expression).

[1] = test system: human colon cancer HT-29 cells; assay: Inhibitory action on the proliferation of HT-29 cells; assay type: cell-based; conditions: 96 hours, TetraColor ONE; for IC50: Homo sapiens, HT-29
Protocol: (§2) The action of the phenanthroindolizidine alkaloid compound of the present invention on the proliferation of human colon cancer SW480 cells, HT-29 cells, and human non-small cell lung cancer A549 cells was studied. The SW480 cells were suspended in a 10% FBS/RPMI1640 and then seeded in a 96-well microplate, followed by culturing in 5% CO2 at 37° C. (2000 cells/well). The A549 cells and the HT-29 cells were each suspended in a DMEM medium containing 10% FBS, 100 U/mL penicillin, and 100 μg/mL streptomycin (10% FBS/DMEM) and a DMEM F-12 HAM medium containing 10% FBS, 100 U/mL penicillin, and 100 μg/mL streptomycin (10% FBS/DMEM F12 HAM), and then seeded in 96-well microplates, followed by culturing in 5% CO2 at 37° C. (1000 cells/well). After an overnight culture, the compound of the present invention was added, followed by further culturing for 48 hours (SW480 cells) and 96 hours (A549 cells and HT-29 cells). After culturing, the number of viable cells was counted using TetraColor ONE (Seikagaku Corporation) in accordance with the attached operating procedure. The results were expressed as the concentration of a test compound needed for 50% inhibition of the proliferation of the cells (IC50).

[2] = test system: human non-small cell lung cancer A549 cells; assay: Inhibitory action on the proliferation of A549 cells; assay type: cell-based; conditions: 96 hours, TetraColor ONE; for IC50: Homo sapiens, A549
Protocol: as §2

[3] = test system: human colon cancer SW480 cells; assay: Inhibitory action on the proliferation of SW480 cells; assay type: cell-based; conditions: 48 hours, TetraColor ONE; for IC50: Homo sapiens, SW480
Protocol: as §2

NFκB = assay: Inhibitory action on the NFκB activity, luciferase assay in SW480/NRE-Luc cells; assay type: cell-based, human; conditions: for IC50: Homo sapiens, SW480, read-out: NFκB inhibitory activity IC50; for NFκB inhibitory activity IC50: SW480/NRE-Luc cells, compound 1 h then 50 ng/mL TNFα 4 h, luciferase
Source text: as §1

| SMILES | IC50 (SV40 promoter) [ng/mL] | IC50 [1] [ng/mL] | IC50 [2] [ng/mL] | IC50 [3] [ng/mL] | IC50 (NFκB) [ng/mL] | SV40 promoter inhibitory activity IC50 (SV40 promoter) [ng/mL] | HT-29 proliferation inhibitory action IC50 [1] [ng/mL] | A549 proliferation inhibitory action IC50 [2] [ng/mL] | SW480 proliferation inhibitory action IC50 [3] [ng/mL] | NFκB inhibitory activity IC50 (NFκB) [ng/mL] |
| --- | --- | --- | --- | --- | --- | --- | --- | --- | --- | --- |
| COc1cc2c3c(c4ccc(NC(=O)OCc5ccccc5)cc4c2cc1OC)[C@H](O)[C@@H]1CCCN1C3.Cl [Compound 26, ((12aS,13S)-13-hydroxy-6,7-dimethoxy-9,10,11,12,12a,13-hexahydro-9a-aza-cyclopenta[b]triphenylene-3-yl)-carbamic acid benzyl ester hydrochloride] | > 1000 | 6.7 | 8.8 | 37.3 | 19.9 |  |  |  |  |  |
| COc1cc2c3c(c4cccc(O)c4c2cc1OC)[C@H](O)[C@@H]1CCCN1C3.Cl [Compound 30, (12aS,13S)-6,7-dimethoxy-9,10,11,12,12a,13-hexahydro-9a-aza-cyclopenta[b]triphenylene-4,13-diol hydrochloride] | > 1000 | 30.5 | 1.2 | 0.45 | 0.017 |  |  |  |  |  |
| COc1cc2c3c(c4ccc(OC(=O)C(C)(C)C)cc4c2cc1OC)C[C@@H]1CCCN1C3.Cl [Compound 35, 2,2-dimethyl-propionic acid(S)-6,7-dimethoxy-9,10,11,12,12a,13-hexahydro-9a-aza-cyclopenta[b]triphenylene-3-yl ester hydrochloride] |  |  |  |  |  | >1000 | 3.7 | 1.2 | 4.1 | 2.4 |
| CCc1ccc2c3c(c4cc(OC)c(OC)cc4c2c1)CN1CCC[C@H]1C3.Cl [Compound 41, (S)-3-ethyl-6,7-dimethoxy-9,10,11,12,12a,13-hexahydro-9a-aza-cyclopenta[b]triphenylene hydrochloride] | > 10000 | 167 | 112 | 391 | 281 |  |  |  |  |  |
| COc1cc2c3c(c4ccc(NC(=O)OCC(C)C)cc4c2cc1OC)C[C@@H]1CCCN1C3.Cl [Compound 42, ((S)-6,7-dimethoxy-9,10,11,12,12a,13-hexahydro-9a-aza-cyclopenta[b]triphenylene-3-yl)-carbamic acid isobutyl ester hydrochloride] | > 10000 | 19 | 27 | 96.3 | 117 |  |  |  |  |  |
| COc1cc2c3c(c4ccc(OC(=O)c5cccnc5)cc4c2cc1OC)C[C@@H]1CCCN1C3.CS(=O)(=O)O [Compound 47, nicotinic acid(S)-6,7-dimethoxy-9,10,11,12,12a,13-hexahydro-9a-aza-cyclopenta[b]triphenylene-3-yl ester methanesulfonate] |  |  |  |  |  | >1000 | 1.9 | 1.1 | 0.38 | 0.42 |
| COc1cc2c3c(c4ccc(OC(=O)C(C)(C)C)cc4c2cc1OC)C[C@@H]1CCCN1C3.CS(=O)(=O)O [Compound 48, 2,2-dimethyl-propionic acid(S)-6,7-dimethoxy-9,10,11,12,12a,13-hexahydro-9a-aza-cyclopenta[b]triphenylene-3-yl ester methanesulfonate] |  |  |  |  |  | >1000 | 2.0 | 1.2 | 0.58 | 0.40 |
| CCCCC(=O)Oc1ccc2c3c(c4cc(OC)c(OC)cc4c2c1)CN1CCC[C@H]1C3.CS(=O)(=O)O [Compound 49, pentanoic acid(S)-6,7-dimethoxy-9,10,11,12,12a,13-hexahydro-9a-aza-cyclopenta[b]triphenylene-3-yl ester methanesulfonate] |  |  |  |  |  | >1000 | 2.0 | 1.1 | 0.62 | 0.41 |
| CCCC(=O)Oc1ccc2c3c(c4cc(OC)c(OC)cc4c2c1)CN1CCC[C@H]1C3.CS(=O)(=O)O [Compound 50, butyric acid(S)-6,7-dimethoxy-9,10,11,12,12a,13-hexahydro-9a-aza-cyclopenta[b]triphenylene-3-yl ester methanesulfonate] |  |  |  |  |  | >100 | 1.5 | 0.86 | 0.54 | 0.34 |
| CCC(=O)Oc1ccc2c3c(c4cc(OC)c(OC)cc4c2c1)CN1CCC[C@H]1C3.CS(=O)(=O)O [Compound 51, propionic acid(S)-6,7-dimethoxy-9,10,11,12,12a,13-hexahydro-9a-aza-cyclopenta[b]triphenylene-3-yl ester methanesulfonate] |  |  |  |  |  | >100 | 1.6 | 0.78 | 1.1 | 0.80 |
| COc1cc2c3c(c4ccc(OC(=O)c5ccco5)cc4c2cc1OC)C[C@@H]1CCCN1C3.CS(=O)(=O)O [Compound 52, furan-2-carboxylic acid(S)-6,7-dimethoxy-9,10,11,12,12a,13-hexahydro-9a-aza-cyclopenta[b]triphenylene-3-yl ester methanesulfonate] |  |  |  |  |  | >1000 | 2.0 | 1.3 | 0.51 | 0.61 |
| COc1cc2c3c(c4ccccc4c2cc1OC)C[C@@H]1CCCN1C3.CS(=O)(=O)O [Compound 53, (S)-6,7-dimethoxy-9,10,11,12,12a,13-hexahydro-9a-aza-cyclopenta[b]triphenylene methanesulfonate] | > 10000 | 58.5 | 28.9 | 32.9 | 19.1 |  |  |  |  |  |
| COc1cc2c3c(c4ccc(N)cc4c2cc1OC)C[C@@H]1CCCN1C3.CS(=O)(=O)O [Compound 54, (S)-3-amino-6,7-dimethoxy-9,10,11,12,12a,13-hexahydro-9a-aza-cyclopenta[b]triphenylene methanesulfonate] | > 10 | 4.15 | 2.8 | 3.9 | 2 |  |  |  |  |  |
| COc1cc2c3c(c4ccc(NC(=O)OCC(C)C)cc4c2cc1OC)C[C@@H]1CCCN1C3.CS(=O)(=O)O [Compound 55, ((S)-6,7-dimethoxy-9,10,11,12,12a,13-hexahydro-9a-aza-cyclopenta[b]triphenylene-3-yl)-carbamic acid isobutyl ester methanesulfonate] | > 10000 | 46 | 33.7 | 0.76 | 0.5 |  |  |  |  |  |
| COc1cc2c3c(c4ccc(N5CCCC5)cc4c2cc1OC)C[C@@H]1CCCN1C3.CS(=O)(=O)O [Compound 57, (S)-6,7-dimethoxy-3-pyrrolidine-9,10,11,12,12a,13-hexahydro-9a-aza-cyclopenta[b]triphenylene methanesulfonate] |  |  |  |  |  | >10000 | 74.1 | 61.1 | 1.0 | 0.67 |
